Source: PMC9120017, “Inhibition mechanism of the chloride channel TMEM16A by the pore blocker 1PBC” (Nature Communications, 2022)
Read-outs that look alike come from different tables or passages of the source.

Biological target: T1, mouse TMEM16A mutant I640A (Mus musculus, UniProt Q8BHY3, I640A)
T1 construct: expressed in transfected cells; host or cells: HEK293T
T1 sequence (Q8BHY3 1-960 I640A): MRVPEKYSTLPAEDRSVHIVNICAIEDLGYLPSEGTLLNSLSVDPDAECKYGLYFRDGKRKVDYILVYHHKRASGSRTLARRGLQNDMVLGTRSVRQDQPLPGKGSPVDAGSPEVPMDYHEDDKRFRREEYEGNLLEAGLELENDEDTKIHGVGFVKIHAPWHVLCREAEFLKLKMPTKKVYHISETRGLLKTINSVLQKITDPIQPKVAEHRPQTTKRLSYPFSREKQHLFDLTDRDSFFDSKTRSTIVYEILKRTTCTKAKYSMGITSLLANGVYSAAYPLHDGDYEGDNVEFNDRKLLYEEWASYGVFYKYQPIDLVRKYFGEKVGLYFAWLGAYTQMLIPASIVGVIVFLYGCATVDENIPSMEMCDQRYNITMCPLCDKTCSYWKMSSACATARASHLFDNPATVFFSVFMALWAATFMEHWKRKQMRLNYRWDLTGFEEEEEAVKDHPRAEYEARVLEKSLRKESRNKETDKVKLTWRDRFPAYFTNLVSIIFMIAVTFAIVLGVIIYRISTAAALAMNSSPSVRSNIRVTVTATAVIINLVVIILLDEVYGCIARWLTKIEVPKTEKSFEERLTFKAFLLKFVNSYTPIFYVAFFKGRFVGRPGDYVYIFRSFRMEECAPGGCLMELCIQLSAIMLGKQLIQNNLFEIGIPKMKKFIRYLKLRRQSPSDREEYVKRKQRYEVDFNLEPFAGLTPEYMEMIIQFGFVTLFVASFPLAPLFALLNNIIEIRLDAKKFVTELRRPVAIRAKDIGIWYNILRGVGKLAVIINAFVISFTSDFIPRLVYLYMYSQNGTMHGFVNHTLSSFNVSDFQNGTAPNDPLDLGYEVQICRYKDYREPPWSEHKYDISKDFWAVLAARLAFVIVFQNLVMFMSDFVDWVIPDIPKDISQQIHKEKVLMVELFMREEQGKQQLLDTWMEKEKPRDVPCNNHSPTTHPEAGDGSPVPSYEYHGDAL
Assay: Inside-out patch recording of 1PBC block, mutant I640A
Assay type: cell-based
Conditions: for IC50: 15 µM Ca2+
Method: HEK293T cells (ATCC CRL-1573) were maintained in Dulbecco’s modified Eagle’s medium (DMEM; Sigma-Aldrich) supplemented with 10 U ml^−1 penicillin, 0.1 mg ml^−1 streptomycin (Sigma-Aldrich), 2 mM L-glutamine (Sigma-Aldrich), and 10% FBS (Sigma-Aldrich) in a humidified atmosphere containing 5% CO2 at 37 °C. HEK293S GnTI^− cells (ATCC CRL-3022) were maintained in HyClone HyCell TransFx-H medium (GE Healthcare) supplemented with 10 U ml^−1 penicillin, 0.1 mg ml^−1 streptomycin, 4 mM L-glutamine, 0.15% poloxamer 188 (Sigma-Aldrich), and 1% FBS in an atmosphere containing 5% CO2 at 185 rpm at 37 °C. The ac splice variant of mouse TMEM16A (UniProt ID: Q8BHY3), mouse TMEM16B (UniProt ID: Q8CFW1), or mouse TMEM16F (UniProt ID: Q6P9J9) bearing a 3C cleavage site, a Venus YFP, a Myc tag, and a Streptavidin-binding peptide (SBP) downstream of the open reading frame in a modified pcDNA3.1 vector (Invitrogen) were used as described previously[21],[31]. Mutations were introduced using a modified QuikChange method[58] and were verified by sequencing.
HEK293T cells were transfected with 3–4 μg DNA per 6 cm Petri dish using the calcium phosphate co-precipitation method and were used within 24–96 h after transfection. Recordings were performed on inside-out patches excised from HEK293T cells expressing the construct of interest. Patch pipettes were pulled from borosilicate glass capillaries (O.D. 1.5 mm, I.D. 0.86 mm, Sutter Instrument) and were fire-polished with a microforge (Narishige) before use. Pipette resistance was typically 3–8 MΩ when filled with the recording solutions detailed below. Seal resistance was typically 4 GΩ or higher. Voltage-clamp recordings were made using Axopatch 200B, Digidata 1550, and Clampex 10.7 (Molecular Devices). Analog signals were filtered with the in-built 4-pole Bessel filter at 10 kHz and were digitized at 20 kHz. Solution exchange was achieved using a gravity-fed system through a theta glass pipette mounted on an ultra-fast piezo-driven stepper (Siskiyou). […] All recordings were performed at 20 °C.
A symmetrical ionic condition was used throughout. Stock solution with Ca^2+-EGTA contained 150 mM NaCl, 5.99 mM Ca(OH)2, 5 mM EGTA, and 10 mM HEPES at pH 7.40. Stock solution with EGTA contained 150 mM NaCl, 5 mM EGTA, and 10 mM HEPES at pH 7.40. Free Ca^2+ concentrations were adjusted by mixing the stock solutions at the required ratios calculated using the WEBMAXC program (http://web.stanford.edu/~cpatton/webmaxcS.htm). Patch pipettes were filled with the stock solution with Ca^2+-EGTA, which has a free Ca^2+ concentration of 1 mM. 1PBC (ChemBridge) stock was reconstituted in anhydrous DMSO (Sigma-Aldrich) at 100 mM and stored at −20 °C. Working solutions with 1PBC were prepared by serial dilution. Unless otherwise stated, experiments were performed at a saturating Ca^2+ concentration as shown in Supplementary Table 1 and the primary data were corrected for current rundown as described previously[21],[25].
Concentration-response relations, obtained from the ratio of the I-V plots before and after the application of the blocker, were fitted to the Hill equation,1 I/Imax=1/1+IC50/[blocker]^h where I/Imax is the normalized current responses, IC50 defines the concentration at which inhibition is at its half-maximum, and h is the Hill coefficient.

SMILES: N#Cc1c(C(F)(F)F)cc(O)n2c1nc1ccccc12 [1PBC]
- IC50 (0 mV): 31.5 µM
- remaining activity at 3 µM (0 mV, 1PBC conc 3, read-out: relative current in 1PBC (avr)): 90.3%
- remaining activity at 10 µM (0 mV, 1PBC conc 10, read-out: relative current in 1PBC (avr)): 75.5%
- remaining activity at 30 µM (0 mV, 1PBC conc 30, read-out: relative current in 1PBC (avr)): 52.3%
- remaining activity at 100 µM (0 mV, 1PBC conc 100, read-out: relative current in 1PBC (avr)): 23.3%
- remaining activity at 3 µM (3 µM 1PBC, +80 mV, saturating Ca2+ (15 µM), read-out: I/Imax): 89.4%
- remaining activity at 3 µM (3 µM 1PBC, -80 mV, saturating Ca2+ (15 µM), read-out: I/Imax): 92.4%
- remaining activity at 10 µM (10 µM 1PBC, +80 mV, saturating Ca2+ (15 µM), read-out: I/Imax): 67.9%
- remaining activity at 10 µM (10 µM 1PBC, -80 mV, saturating Ca2+ (15 µM), read-out: I/Imax): 84.6%
- remaining activity at 30 µM (30 µM 1PBC, +80 mV, saturating Ca2+ (15 µM), read-out: I/Imax): 43%
- remaining activity at 30 µM (30 µM 1PBC, -80 mV, saturating Ca2+ (15 µM), read-out: I/Imax): 64.1%
- remaining activity at 100 µM (100 µM 1PBC, +80 mV, saturating Ca2+ (15 µM), read-out: I/Imax): 17.7%
- remaining activity at 100 µM (100 µM 1PBC, -80 mV, saturating Ca2+ (15 µM), read-out: I/Imax): 34.6%
- normalised current (avr) (1PBC 3, V 0 mV): -0.001271
- normalised current (avr) (1PBC 3, V 40 mV): 0.2411
- normalised current (avr) (1PBC 3, V 60 mV): 0.367
- normalised current (avr) (1PBC 3, V 80 mV): 0.5025
- normalised current (avr) (1PBC 3, V 100 mV): 0.651
- normalised current (avr) (1PBC 3, V 120 mV): 0.7973
- normalised current (avr) (1PBC 3, V 140 mV): 0.965
- normalised current (avr) (1PBC 3, V -20 mV): -0.1226
- normalised current (avr) (1PBC 3, V -40 mV): -0.2495
- normalised current (avr) (1PBC 3, V -60 mV): -0.3836
- normalised current (avr) (1PBC 3, V -80 mV): -0.5286
- normalised current (avr) (1PBC 3, V -100 mV): -0.6862
- normalised current (avr) (1PBC 3, V -120 mV): -0.8514
- normalised current (avr) (1PBC 3, V -140 mV): -1.031
- normalised current (avr) (1PBC 10, V 0 mV): -0.001063
- normalised current (avr) (1PBC 10, V 40 mV): 0.1907
- normalised current (avr) (1PBC 10, V 60 mV): 0.2862
- normalised current (avr) (1PBC 10, V 80 mV): 0.3819
- normalised current (avr) (1PBC 10, V 100 mV): 0.495
- normalised current (avr) (1PBC 10, V 120 mV): 0.6083
- normalised current (avr) (1PBC 10, V 140 mV): 0.7528
- normalised current (avr) (1PBC 10, V -20 mV): -0.1054
- normalised current (avr) (1PBC 10, V -40 mV): -0.2204
- normalised current (avr) (1PBC 10, V -60 mV): -0.3486
- normalised current (avr) (1PBC 10, V -80 mV): -0.4836
- normalised current (avr) (1PBC 10, V -100 mV): -0.6367
- normalised current (avr) (1PBC 10, V -120 mV): -0.7969
- normalised current (avr) (1PBC 10, V -140 mV): -0.9705
- normalised current (avr) (1PBC 30, V 0 mV): -0.0007361
- normalised current (avr) (1PBC 30, V 40 mV): 0.1262
- normalised current (avr) (1PBC 30, V 60 mV): 0.1828
- normalised current (avr) (1PBC 30, V 80 mV): 0.2416
- normalised current (avr) (1PBC 30, V 100 mV): 0.3073
- normalised current (avr) (1PBC 30, V 120 mV): 0.3826
- normalised current (avr) (1PBC 30, V 140 mV): 0.476
- normalised current (avr) (1PBC 30, V -20 mV): -0.07452
- normalised current (avr) (1PBC 30, V -40 mV): -0.1601
- normalised current (avr) (1PBC 30, V -60 mV): -0.2555
- normalised current (avr) (1PBC 30, V -80 mV): -0.3668
- normalised current (avr) (1PBC 30, V -100 mV): -0.4877
- normalised current (avr) (1PBC 30, V -120 mV): -0.6228
- normalised current (avr) (1PBC 30, V -140 mV): -0.7629
- normalised current (avr) (1PBC 100, V 0 mV): -0.0003287
- normalised current (avr) (1PBC 100, V 60 mV): 0.07288
- normalised current (avr) (1PBC 100, V 80 mV): 0.09923
- normalised current (avr) (1PBC 100, V 100 mV): 0.1285
- normalised current (avr) (1PBC 100, V 120 mV): 0.1506
- normalised current (avr) (1PBC 100, V 140 mV): 0.1846
- normalised current (avr) (1PBC 100, V -20 mV): -0.0346
- normalised current (avr) (1PBC 100, V -40 mV): -0.07836
- normalised current (avr) (1PBC 100, V -60 mV): -0.1311
- normalised current (avr) (1PBC 100, V -80 mV): -0.1979
- normalised current (avr) (1PBC 100, V -100 mV): -0.2777
- normalised current (avr) (1PBC 100, V -120 mV): -0.3667
- normalised current (avr) (1PBC 100, V -140 mV): -0.4836
- IC50 (20 mV): 27.5 µM
- remaining activity at 3 µM (20 mV, 1PBC conc 3, read-out: relative current in 1PBC (avr)): 89.4%
- remaining activity at 10 µM (20 mV, 1PBC conc 10, read-out: relative current in 1PBC (avr)): 72.5%
- remaining activity at 30 µM (20 mV, 1PBC conc 30, read-out: relative current in 1PBC (avr)): 49.1%
- remaining activity at 100 µM (20 mV, 1PBC conc 100, read-out: relative current in 1PBC (avr)): 20.9%
- IC50 (40 mV): 24.7 µM
- remaining activity at 3 µM (40 mV, 1PBC conc 3, read-out: relative current in 1PBC (avr)): 89%
- remaining activity at 10 µM (40 mV, 1PBC conc 10, read-out: relative current in 1PBC (avr)): 70.4%
- remaining activity at 30 µM (40 mV, 1PBC conc 30, read-out: relative current in 1PBC (avr)): 46.6%
